The test system of this assay is Nude mice, LX-1 lung xenograft intrarenal, tumor weight T/C. Description: NCI In Vivo Anticancer Drug Screen. Data for tumor model Human Lung LX-1 Xenograft (intrarenal inoculation) in NU/NU BALB/C (nude) mice. The conditions noted are these: endpoint: mean tumor weight change, higher = larger tumour. On the procedure:
The antitumor activity of compounds was measured in mice bearing transplantable tumors. Survival or tumor size were measured and the results are expressed as the measurement made in the treated group (T) divided by the measurement made in the vehicle treated control group (C). The tumor model used in this assay is Human Lung LX-1 Xenograft (intrarenal inoculation) in NU/NU BALB/C (nude) mice
A general note: Xenograft models place foreign cells or tissue in a host animal.

Setting [1] is: dose: 75.0 mg/kg/injection, schedule: Q04DX003 (sc), vehicle: Klucel (hydroxypropylcellulose) (HPC).
Where [2] appears, read: dose: 150.0 mg/kg/injection, schedule: Q04DX003 (sc), vehicle: Klucel (hydroxypropylcellulose) (HPC).
Setting [3] is: dose: 300.0 mg/kg/injection, schedule: Q04DX003 (sc), vehicle: Klucel (hydroxypropylcellulose) (HPC).
Setting [4] is: dose: 300.0 mg/kg/injection, schedule: Q04DX003 (sc), vehicle: saline with Tween-80.
Setting [5] is: dose: 600.0 mg/kg/injection, schedule: Q04DX003 (sc), vehicle: saline with Tween-80.
The mark [6] stands for this setting: dose: 1200.0 mg/kg/injection, schedule: Q04DX003 (sc), vehicle: saline with Tween-80.
[7] abbreviates: dose: 2400.0 mg/kg/injection, schedule: Q04DX003 (sc), vehicle: saline with Tween-80.
Where [8] appears, read: dose: 25.0 mg/kg/injection, schedule: Q01DX010 (sc), vehicle: saline.
Where [9] appears, read: dose: 50.0 mg/kg/injection, schedule: Q01DX010 (sc), vehicle: saline.

Several values for one entry are separate records, joined by “and”; a condition that tells them apart may be missing. Equal entries are not always repeated. Inconclusive results are not listed.

As for `C=C(C)C(=O)O[C@H]1CC2=C[C@@H](C[C@@]3(C)O[C@@H]3[C@H]3OC(=O)C(=C)[C@@H]31)OC2=O`, the T/C reads like this: under setting [1], 64 % of control; under setting [2], 91 % of control; under setting [3], 58 % of control.

Consider `CCCCCc1cc(/C=C2/N=C(c3ccc[nH]3)C=C2OC)[nH]c1C`, for which the T/C reads like this: (dose: 8.0 mg/kg/injection, schedule: Q04DX003 (sc), vehicle: saline with Tween-80) 73 % of control; (dose: 16.0 mg/kg/injection, schedule: Q04DX003 (sc), vehicle: saline with Tween-80) 54 % of control; (dose: 32.0 mg/kg/injection, schedule: Q04DX003 (sc), vehicle: saline with Tween-80) 59 % of control; (dose: 64.0 mg/kg/injection, schedule: Q04DX003 (sc), vehicle: saline with Tween-80) 67 % of control.

`O=NN(CCCl)C(=O)NC1CCCCC1`: the T/C is, setting by setting: (dose: 12.5 mg/kg/injection, schedule: Q04DX003 (sc), vehicle: Klucel (hydroxypropylcellulose) (HPC)) 47 % of control; (dose: 25.0 mg/kg/injection, schedule: Q04DX003 (sc), vehicle: Klucel (hydroxypropylcellulose) (HPC)) 29 % of control; (dose: 26.66 mg/kg/injection, schedule: Q04DX003 (sc), vehicle: saline with Tween-80) 4 % of control; (dose: 50.0 mg/kg/injection, schedule: Q04DX003 (sc), vehicle: Klucel (hydroxypropylcellulose) (HPC)) -25 % of control; (dose: 53.33 mg/kg/injection, schedule: Q04DX003 (sc), vehicle: saline with Tween-80) -73 % of control; (dose: 100.0 mg/kg/injection, schedule: Q04DX003 (sc), vehicle: Klucel (hydroxypropylcellulose) (HPC)) 4 % of control.

For the compound `COc1c(C=O)c2c(c(OC)c1OC)-c1ccc(OC)c(=O)cc1[C@@H](NC(C)=O)CC2`, the T/C (dose: 18.75 mg/kg/injection, schedule: Q04DX003 (sc), vehicle: Klucel (hydroxypropylcellulose) (HPC)) was 83 % of control; the T/C (dose: 37.5 mg/kg/injection, schedule: Q04DX003 (sc), vehicle: Klucel (hydroxypropylcellulose) (HPC)) is 59 % of control; the T/C under setting [1] is 32 % of control.

With `C1CN1c1nc(N2CC2)nc(N2CC2)n1`, the T/C was 34 % of control (dose: 0.25 mg/kg/injection, schedule: Q01DX010 (sc), vehicle: saline) and 45 % of control (dose: 0.5 mg/kg/injection, schedule: Q01DX010 (sc), vehicle: saline).

On to `CN(N=O)C(N)=O`, for which the T/C reads like this: (dose: 12.5 mg/kg/injection, schedule: Q01DX010 (sc), vehicle: saline with Tween-80) -68 % of control; (dose: 25.0 mg/kg/injection, schedule: Q01DX010 (sc), vehicle: saline with Tween-80) -54 % of control; (dose: 50.0 mg/kg/injection, schedule: Q01DX010 (sc), vehicle: saline with Tween-80) -69 % of control.

In the case of `Cc1cc(=NO)cc(C)n1O`, the T/C by setting is: (dose: 300.0 mg/kg/injection, schedule: Q04DX003 (sc), vehicle: distilled water + alcohol) 102 % of control; (dose: 600.0 mg/kg/injection, schedule: Q04DX003 (sc), vehicle: distilled water + alcohol) 102 % of control; (dose: 1200.0 mg/kg/injection, schedule: Q04DX003 (sc), vehicle: distilled water + alcohol) 60 % of control.

Take `NC1=NC(=O)N2CC12` (stereo not drawn): the T/C (dose: 50.0 mg/kg/injection, schedule: Q04DX003 (sc), vehicle: saline) was 101 % of control; the T/C (dose: 100.0 mg/kg/injection, schedule: Q04DX003 (sc), vehicle: saline) was 102 % of control; the T/C (dose: 200.0 mg/kg/injection, schedule: Q04DX003 (sc), vehicle: saline) was 108 % of control.

As to `CCN(CC)Cc1cc2[nH]c3c4ccc(Cl)cc4ncc3c2cc1OC`, the T/C was 73 % of control (dose: 75.0 mg/kg/injection, schedule: Q04DX003 (sc), vehicle: saline with Tween-80); 71 % of control (dose: 150.0 mg/kg/injection, schedule: Q04DX003 (sc), vehicle: saline with Tween-80); 86 % of control under setting [4].

Turning to `CCOC(=O)N(C)N=NC`, the T/C (dose: 7.5 mg/kg/injection, schedule: Q04DX003 (ip), vehicle: saline) is 57 % of control; the T/C (dose: 15.0 mg/kg/injection, schedule: Q04DX003 (ip), vehicle: saline) is 51 % of control; the T/C (dose: 60.0 mg/kg/injection, schedule: Q04DX003 (ip), vehicle: saline) is 14 % of control and 24 % of control.

Regarding `CC(CN1CC(=O)NC(=O)C1)N1CC(=O)NC(=O)C1` (stereo not drawn), the T/C is 88 % of control under setting [2]; 94 % of control under setting [3]; 45 % of control (dose: 600.0 mg/kg/injection, schedule: Q04DX003 (sc), vehicle: Klucel (hydroxypropylcellulose) (HPC)).

In the case of `[Na+]`, the T/C runs as follows: (dose: 150.0 mg/kg/injection, schedule: Q04DX003 (ip), vehicle: water) 68 % of control; (dose: 600.0 mg/kg/injection, schedule: Q04DX003 (ip), vehicle: water) 82 % of control; (dose: 1200.0 mg/kg/injection, schedule: Q04DX003 (ip), vehicle: water) 79 % of control.

As for `CC(C#N)(C#N)N=Nc1ccc(Cl)cc1Cl`, the T/C under setting [5] is 124 % of control, the T/C under setting [6] is 86 % of control and the T/C under setting [7] is 102 % of control.

On to `[N-]=[N+]=CC(=O)CCC(N)C(=O)O` (stereo not drawn), for which the T/C is 119 % of control (dose: 0.05 mg/kg/injection, schedule: Q01DX010 (sc), vehicle: saline); 226 % of control (dose: 0.05 mg/kg/injection, schedule: Q02DX005 (sc), vehicle: saline); 64 % of control (dose: 0.1 mg/kg/injection, schedule: Q01DX010 (sc), vehicle: saline); 187 % of control (dose: 0.1 mg/kg/injection, schedule: Q02DX005 (sc), vehicle: saline); 110 % of control (dose: 0.2 mg/kg/injection, schedule: Q02DX005 (sc), vehicle: saline); 34 % of control (dose: 0.4 mg/kg/injection, schedule: Q01DX010 (sc), vehicle: saline). Besides, the T/C (dose: 3.2 mg/kg/injection, schedule: Q02DX005 (sc), vehicle: saline) is 9 % of control.

In the case of `C=CC(C)NC(=S)NNC(=S)NC` (stereo not drawn), the T/C by setting is: (dose: 300.0 mg/kg/injection, schedule: Q04DX003 (sc), vehicle: saline + alcohol) 115 % of control; (dose: 600.0 mg/kg/injection, schedule: Q04DX003 (sc), vehicle: saline + alcohol) 87 % of control; (dose: 1200.0 mg/kg/injection, schedule: Q04DX003 (sc), vehicle: saline + alcohol) 87 % of control; (dose: 2400.0 mg/kg/injection, schedule: Q04DX003 (sc), vehicle: saline + alcohol) 78 % of control.

For `S=P(N1CC1)(N1CC1)N1CC1`, for the setting “dose: 4.0 mg/kg/injection, schedule: Q01DX010 (sc), vehicle: saline”, the T/C is 77 % of control.

With `CNC(=O)ON(C(C)=O)C(=O)NC`, the T/C was 49 % of control under setting [8]; 85 % of control under setting [9]; 41 % of control (dose: 100.0 mg/kg/injection, schedule: Q01DX010 (sc), vehicle: saline).

In the case of `COc1ccc(C(=O)/C(Br)=C/C(=O)O)cc1`, the T/C reads like this: under setting [8], 194 % of control; under setting [9], 158 % of control.

Regarding `CN(CO)c1nc(N(C)CO)nc(N(C)CO)n1`, the T/C by setting is: (dose: 6.25 mg/kg/injection, schedule: Q01DX010 (sc), vehicle: saline) 71 % of control; under setting [8], 100 % of control; under setting [9], 122 % of control.

For `CS(C)=O`, the T/C was 88 % of control (dose: 750.0 mg/kg/injection, schedule: Q01DX010 (sc), vehicle: saline) and 67 % of control (dose: 6000.0 mg/kg/injection, schedule: Q01DX010 (sc), vehicle: saline).

For the compound `N#CCCSC(=S)C1CCCC1=N` (stereo not drawn), the T/C under setting [4] was 84 % of control, the T/C under setting [5] was 79 % of control, the T/C under setting [6] was 102 % of control and the T/C under setting [7] is 91 % of control.

Regarding `OCC(O)C(O)C(O)C(O)CO` (stereo not drawn), the T/C (dose: 75.0 mg/kg/injection, schedule: Q04DX003 (ip), vehicle: saline) is 108 % of control; the T/C (dose: 600.0 mg/kg/injection, schedule: Q04DX003 (ip), vehicle: saline) was 109 % of control; the T/C (dose: 1200.0 mg/kg/injection, schedule: Q04DX003 (ip), vehicle: saline) is 94 % of control.

As for `CNc1nc(NC)nc(NC)n1`, the T/C (dose: 25.0 mg/kg/injection, schedule: Q01DX010 (sc), vehicle: Klucel (hydroxypropylcellulose) (HPC)) is 85 % of control and the T/C (dose: 100.0 mg/kg/injection, schedule: Q01DX010 (sc), vehicle: Klucel (hydroxypropylcellulose) (HPC)) is 107 % of control.

The values above are taken from PubChem BioAssay AID266 (DTP/NCI, 2004).
